Patent publication US20230265524A1, “IMMUNOGENIC RETROELEMENTS AND THEIR USE IN CANCER THERAPY” (UNIVERSITY HEALTH NETWORK, priority 2020, published 2023)

Experiments:
[1] = test system: patient-derived CRC cells; assay: in vitro sphere initiation assay followed by limiting dilution analysis (LDA); assay type: cell-based, human; settings: ADAR1-depleted CRC cells treated with 5-AZA-CdR
Method: B, The normalized percentage of reduction in sphere forming ability was calculated in each condition compared to Mock-treated.
One of the major challenges facing conventional chemotherapy is the persistence of cancer initiating cells (CICs), often resulting in relapse^38-40. We and others have previously shown that 5-AZA-CdR treatment can target colorectal cancer CICs by inducing the viral mimicry response^1,41. We therefore tested whether ADAR1^KD by itself or in combination with 5-AZA-CdR can decrease tumour initiation. To this end, we first employed an in vitro sphere initiation assay followed by limiting dilution analysis (LDA) using patient-derived CRC cells. […] In addition, we performed in vivo tumour initiation assays by injecting serially diluted patient-derived CRC cells into NSG immunodeficient mice and inspected tumour engraftment for up to 6 months after injection (FIG. 12F).

[2] = test system: H3K4me3 and H3K27ac upstream of treatment-induced IR-Alus; assay: genome-wide CUT&RUN of H3K4me3 and H3K27ac at treatment-induced IR-Alus; assay type: cell-based, human; settings: DNMTi treatment
Excerpt: D, Heatmaps and average CUT & RUN profiles of H3K4me3 (left) and H3K27ac (right) signal at −50 kb/+50 kb (Upstream/downstream) of the Treatment-induced IR-Alu pairs regions. The orientation was based on the transcriptional orientation in the MDA5-protected RNA-seq data
Active promoters and enhancers are often marked by H3K4me3 and H3K27ac, respectively. […] Importantly, we assessed the DNA methylation status of these specific regulatory regions that became H3K4me3 marked upstream of the induced IR-Alus following epigenetic therapy and found the majority of these regions to be frequently methylated before treatment. We observed that 91% of these regions were either partially or fully methylated in the panel of 51 CRC cell lines (FIG. 6C) and 94% in the panel of 988 pan-cancer cell lines (FIG. 6D). Moreover, we observed that the DNA methylation status of these regulatory regions upstream of induced IR-Alus were inversely correlated (r=−0.23, p=7.58-13) with the expression of a panel of Interferon-Stimulated Genes (n=22 ISGs) from our viral mimicry signature^1 across the 988 pan-cancer cell lines (FIG. 6E).

[3] = test system: patient-derived xenograft CRC cells; assay: subcutaneous patient-derived xenograft CRC tumour growth in NSG mice; assay type: in vivo; settings: 0.5 mg kg-1 intraperitoneal
Method: B, Schematic representation of in vivo experimental scheme of non-infected, ADAR1^WT, ADAR1^KDA and ADAR1^KDB patient-derived xenograft CRC cells injected subcutaneously into flanks of NSG mice (n=10 mice per group; 2 tumours per mouse). Arrows represent days of treatment (0.5 mg kg-1 5-AZA-CdR by intraperitoneal injection or vehicle).
C, Tumour volume measured at the indicated time points. Arrows represent days of treatment. ADAR1^KDA 5-AZA-CdR (n=20 tumours) and ADAR1^KDB 5-AZA-CdR (n=18 tumours at day 12 and n=14 tumours at day15) compared with non-infected (NI) 5-AZA-CdR (n=19 tumours) cohort. Data are mean±s.e.m. ****P<0.0001, Tukey-corrected two-way ANOVA
D, Colorectal cancer tumours dissected from Vehicle and 5-AZA-CdR cohorts at day 14 post-treatment are depicted for each condition (n=5) (NI=non-infected)
E, Tumour weight for each group at the time of dissection (day 14 after treatment). Data are mean±s.d. ****P<0.0001, Tukey-corrected ordinary-one-way ANOVA.
Finally, we sought to investigate whether ADAR1 inhibition would synergize with epigenetic therapy to increase the anti-tumour response. […] To examine the potential synergy in vivo, we injected ADAR1^KDA/B or wildtype patient-derived xenograft CRC cells subcutaneously into immune-deficient NOD.Cg-Prkdc (NSG) mice, and treated the mice with 5-AZA-CdR or vehicle (PBS) (FIG. 12B and FIG. 13A). […]

[4] = test system: HT29 colorectal cancer cell lines; assay: ISG relative expression in HT29 cells; assay type: cell-based, human; settings: HT29, ADAR1 KD vs WT, 300 nM for 5 days
Method: D) Interferon-stimulated genes (MDA5, ISG15 and DDX58) relative expression in ADAR1^WT and ADAR1^KD HT29 colorectal cancer cell lines treated with 300 nM 5-AZA-CdR for 5 days. Data are mean±s.e.m. (n=3 from three independent experiments). *P<0.05, **P<0.01, ***P<0.001, ****P<0.0001, Tukey-corrected two-way ANOVA.
Based on these findings, we hypothesized that ADAR1 depletion would synergize with the viral mimicry response induced by DNMTi treatment. To assess how ADAR1 depletion affects 5-AZA-CdR treated samples, we performed RNA-seq analyses in patient-derived CRC cells. […] As a molecular read-out of dsRNA pattern recognition activation, we measured MAVS aggregation in the mitochondrial fraction of cell lysates^34. […] Taken together, our findings establish that ADAR1 acts as a negative feedback loop, restricting the viral mimicry response induced by DNMTi treatment in cancer cells.

Nc1ncn([C@H]2C[C@H](O)[C@@H](CO)O2)c(=O)n1 [5-AZA-CdR] was tested, and the spheroid forming potential [1] was “reduced the spheroid forming potential”, the “H3K4me3 and H3K27ac levels directly upstream of treatment-induced immunogenic IR-Alus” value [2] was “elevated levels of H3K4me3, but not H3K27ac” and the anti-tumour activity ([3]; ADAR1^KDA/B cells) was “remarkable anti-tumour activity”. For the same compound, the anti-tumour activity ([3]; wildtype cells) was “very limited anti-tumour activity” and the “expression of IFN stimulated genes (ISGs)” value [4] was “enhanced upon ADAR1 depletion”.
